# Measurements published in PubChem BioAssay (NCI).
#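 All cell lines were grown in 96-well plates and treated with compound for 48 hours. Definition used: TGI = concentration required for complete inhibition of growth.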
# What was measured:
# Assay in all cases: NCI tumour cell line growth inhibition, 48 h
# HCT-116 colon = test system: HCT-116 colon
# HOP-62 NSCLC = test system: HOP-62 NSCLC
# OVCAR-4 ovarian = test system: OVCAR-4 ovarian
# MALME-3M melanoma = test system: MALME-3M melanoma
# RPMI-8226 leukemia = test system: RPMI-8226 leukemia
# ACHN renal = test system: ACHN renal
# EKVX NSCLC = test system: EKVX NSCLC
# HS 578T breast = test system: HS 578T breast
# SF-295 CNS = test system: SF-295 CNS
# MCF7 breast = test system: MCF7 breast
# MDA-MB-231 breast = test system: MDA-MB-231 breast
# TK-10 renal = test system: TK-10 renal
# OVCAR-8 ovarian = test system: OVCAR-8 ovarian
# K-562 leukemia = test system: K-562 leukemia
# SK-MEL-28 melanoma = test system: SK-MEL-28 melanoma
# SF-539 CNS = test system: SF-539 CNS
# OVCAR-5 ovarian = test system: OVCAR-5 ovarian
# LOX IMVI melanoma = test system: LOX IMVI melanoma
# 786-0 renal = test system: 786-0 renal
# SF-268 CNS = test system: SF-268 CNS
# CAKI-1 renal = test system: CAKI-1 renal
# UACC-257 melanoma = test system: UACC-257 melanoma
# COLO 205 colon = test system: COLO 205 colon
# U251 CNS = test system: U251 CNS
# HCT-15 colon = test system: HCT-15 colon
# HCC-2998 colon = test system: HCC-2998 colon
# SN12C renal = test system: SN12C renal
# MDA-N = test system: MDA-N
# A498 renal = test system: A498 renal
# UO-31 renal = test system: UO-31 renal
# KM12 colon = test system: KM12 colon
# NCI/ADR-RES ovarian = test system: NCI/ADR-RES ovarian
# OVCAR-3 ovarian = test system: OVCAR-3 ovarian
# SR leukemia = test system: SR leukemia
# HL-60(TB) leukemia = test system: HL-60(TB) leukemia
# NCI-H460 lung = test system: NCI-H460 lung
# PC-3 prostate = test system: PC-3 prostate
# IGROV1 ovarian = test system: IGROV1 ovarian
# NCI-H226 lung = test system: NCI-H226 lung
# SW-620 colon = test system: SW-620 colon
# SNB-75 CNS = test system: SNB-75 CNS
# SNB-19 CNS = test system: SNB-19 CNS
# MDA-MB-435 = test system: MDA-MB-435
# NCI-H522 lung = test system: NCI-H522 lung
# A549 NSCLC = test system: A549 NSCLC
# BT-549 breast = test system: BT-549 breast
# HT29 colon = test system: HT29 colon
# MOLT-4 leukemia = test system: MOLT-4 leukemia
# CCRF-CEM leukemia = test system: CCRF-CEM leukemia
# HOP-92 NSCLC = test system: HOP-92 NSCLC
# RXF 393 renal = test system: RXF 393 renal
# DU-145 prostate = test system: DU-145 prostate
# M14 melanoma = test system: M14 melanoma
# SK-MEL-5 melanoma = test system: SK-MEL-5 melanoma
# SK-MEL-2 melanoma = test system: SK-MEL-2 melanoma
# NCI-H23 lung = test system: NCI-H23 lung
# T-47D breast = test system: T-47D breast
# SK-OV-3 ovarian = test system: SK-OV-3 ovarian
# UACC-62 melanoma = test system: UACC-62 melanoma
smiles,measurement,setting,value
COC(CN(C(=O)c1ccccc1)C1CCC2(SCCS2)c2[nH]c3ccccc3c21)OC (stereo unspecified),TGI,HCT-116 colon,> 100 µM
same,TGI,HOP-62 NSCLC,> 100 µM
same,TGI,OVCAR-4 ovarian,> 100 µM
same,TGI,MALME-3M melanoma,> 100 µM
same,TGI,RPMI-8226 leukemia,> 100 µM
same,TGI,ACHN renal,> 100 µM
same,TGI,EKVX NSCLC,> 100 µM
same,TGI,HS 578T breast,> 100 µM
same,TGI,SF-295 CNS,13.9 µM
same,TGI,MCF7 breast,> 100 µM
same,TGI,MDA-MB-231 breast,> 100 µM
same,TGI,TK-10 renal,> 100 µM
same,TGI,OVCAR-8 ovarian,> 100 µM
same,TGI,K-562 leukemia,> 100 µM
same,TGI,SK-MEL-28 melanoma,> 100 µM
same,TGI,SF-539 CNS,> 100 µM
same,TGI,OVCAR-5 ovarian,> 100 µM
same,TGI,LOX IMVI melanoma,6.67 µM
same,TGI,786-0 renal,> 100 µM
same,TGI,SF-268 CNS,> 100 µM
same,TGI,CAKI-1 renal,> 100 µM
same,TGI,UACC-257 melanoma,33.5 µM
same,TGI,COLO 205 colon,59.3 µM
same,TGI,U251 CNS,> 100 µM
same,TGI,HCT-15 colon,> 100 µM
same,TGI,HCC-2998 colon,> 100 µM
same,TGI,SN12C renal,> 100 µM
same,TGI,MDA-N,49 µM
same,TGI,A498 renal,> 100 µM
same,TGI,UO-31 renal,> 100 µM
same,TGI,KM12 colon,> 100 µM
same,TGI,NCI/ADR-RES ovarian,> 100 µM
same,TGI,OVCAR-3 ovarian,> 100 µM
same,TGI,SR leukemia,> 100 µM
same,TGI,HL-60(TB) leukemia,> 100 µM
same,TGI,NCI-H460 lung,> 100 µM
same,TGI,PC-3 prostate,77.1 µM
same,TGI,IGROV1 ovarian,> 100 µM
same,TGI,NCI-H226 lung,> 100 µM
same,TGI,SW-620 colon,> 100 µM
same,TGI,SNB-75 CNS,> 100 µM
same,TGI,SNB-19 CNS,> 100 µM
same,TGI,MDA-MB-435,70.2 µM
same,TGI,NCI-H522 lung,65.4 µM
same,TGI,A549 NSCLC,> 100 µM
same,TGI,BT-549 breast,> 100 µM
same,TGI,HT29 colon,> 100 µM
same,TGI,MOLT-4 leukemia,> 100 µM
same,TGI,CCRF-CEM leukemia,> 100 µM
same,TGI,HOP-92 NSCLC,> 100 µM
same,TGI,RXF 393 renal,> 100 µM
same,TGI,DU-145 prostate,> 100 µM
same,TGI,M14 melanoma,> 100 µM
same,TGI,SK-MEL-5 melanoma,> 100 µM
same,TGI,SK-MEL-2 melanoma,> 100 µM
same,TGI,NCI-H23 lung,> 100 µM
CCOC(=O)c1csc(NC(=O)C(C)N2CCCCC2)n1 (stereo unspecified),TGI,HOP-62 NSCLC,> 100 µM
same,TGI,OVCAR-4 ovarian,> 100 µM
same,TGI,MALME-3M melanoma,> 100 µM
same,TGI,RPMI-8226 leukemia,> 100 µM
same,TGI,ACHN renal,> 100 µM
same,TGI,EKVX NSCLC,> 100 µM
same,TGI,SF-295 CNS,> 100 µM
same,TGI,MCF7 breast,> 100 µM
same,TGI,MDA-MB-231 breast,> 100 µM
same,TGI,TK-10 renal,> 100 µM
same,TGI,OVCAR-8 ovarian,> 100 µM
same,TGI,K-562 leukemia,> 100 µM
same,TGI,SK-MEL-28 melanoma,> 100 µM
same,TGI,SF-539 CNS,> 100 µM
same,TGI,OVCAR-5 ovarian,> 100 µM
same,TGI,LOX IMVI melanoma,> 100 µM
same,TGI,CAKI-1 renal,> 100 µM
same,TGI,UACC-257 melanoma,> 100 µM
same,TGI,COLO 205 colon,> 100 µM
same,TGI,U251 CNS,> 100 µM
same,TGI,HCT-15 colon,> 100 µM
same,TGI,HCC-2998 colon,> 100 µM
same,TGI,MDA-N,> 100 µM
same,TGI,A498 renal,> 100 µM
same,TGI,UO-31 renal,> 100 µM
same,TGI,KM12 colon,> 100 µM
same,TGI,NCI/ADR-RES ovarian,> 100 µM
same,TGI,OVCAR-3 ovarian,> 100 µM
same,TGI,T-47D breast,> 100 µM
same,TGI,HL-60(TB) leukemia,> 100 µM
same,TGI,NCI-H460 lung,> 100 µM
same,TGI,PC-3 prostate,> 100 µM
same,TGI,IGROV1 ovarian,> 100 µM
same,TGI,SK-OV-3 ovarian,> 100 µM
same,TGI,SW-620 colon,> 100 µM
same,TGI,SNB-75 CNS,> 100 µM
same,TGI,SNB-19 CNS,> 100 µM
same,TGI,MDA-MB-435,> 100 µM
same,TGI,UACC-62 melanoma,> 100 µM
same,TGI,A549 NSCLC,> 100 µM
same,TGI,HT29 colon,> 100 µM
same,TGI,MOLT-4 leukemia,> 100 µM
same,TGI,CCRF-CEM leukemia,> 100 µM
same,TGI,HOP-92 NSCLC,> 100 µM
same,TGI,RXF 393 renal,> 100 µM
same,TGI,DU-145 prostate,> 100 µM
same,TGI,M14 melanoma,> 100 µM
same,TGI,SK-MEL-5 melanoma,> 100 µM
same,TGI,SK-MEL-2 melanoma,> 100 µM
same,TGI,NCI-H23 lung,> 100 µM
